Results taken from patent US11254663B2 (BRISTOL-MYERS SQUIBB COMPANY, priority 2019, dated 2022).

biological target: FXR (Homo sapiens (Human), UniProt Q96RI1); experiment: transient human FXR/Gal4-luciferase reporter assay; format: cell-based; conditions: not given
Procedure, shortened: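 HEK293 cells stably carrying a 5×Gal4 response element–firefly luciferase reporter were transiently transfected overnight with a Gal4 DBD–human FXR LBD fusion plasmid. Compound was added in DMSO and cells were incubated overnight at 37 °C, 5% CO2. Activity was read as Steady-Glo luminescence.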

Chain of FXR (Q96RI1 262-486): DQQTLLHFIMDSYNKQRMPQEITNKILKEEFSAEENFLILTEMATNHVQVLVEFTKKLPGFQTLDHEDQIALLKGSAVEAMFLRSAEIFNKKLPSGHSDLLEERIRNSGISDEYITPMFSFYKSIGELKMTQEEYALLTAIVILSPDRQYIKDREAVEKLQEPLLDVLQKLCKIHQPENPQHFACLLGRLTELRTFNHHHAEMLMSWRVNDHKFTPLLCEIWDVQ

| Compound | EC50 |
| --- | --- |
| Cc1nc2ccc(-c3cncc(N(CC45CCC(c6noc(C(C)(C)C)n6)(CC4)CC5)C(=O)C45CC(F)(C4)C5)c3)cc2s1 [Example 484, N-((4-(5-(tert-butyl)-1,2,4-oxadiazol-3-yl)bicyclo[2.2.2]octan-1-yl)methyl)-3-fluoro-N-(5-(2-methylbenzo[d]thiazol-6-yl)pyridin-3-yl)bicyclo[1.1.1]pentane-1-carboxamide] | 344 nM |
| Cc1nc2ccc(-c3cccc(N(CC45CCC(c6noc(C(F)F)n6)(CC4)CC5)C(=O)C45CC(F)(C4)C5)c3)cc2s1 [Example 462, N-((4-(5-(difluoromethyl)-1,2,4-oxadiazol-3-yl)bicyclo[2.2.2]octan-1-yl)methyl)-3-fluoro-N-(3-(2-methylbenzo[d]thiazol-6-yl)phenyl)bicyclo[1.1.1]pentane-1-carboxamide] | 107 nM |

same assay, conditions: Gal4-hFXR fusion construct, HEK293 reporter cells; response relative to 8 μM GW-4064

| Compound | EC50 |
| --- | --- |
| CC(C)(C)c1noc(C23CCC(CN(C(=O)C45CC(F)(C4)C5)c4cccc(-c5ccc(OC(F)F)cn5)c4)(CC2)CC3)n1 [Example 373, N-((4-(3-(tert-butyl)-1,2,4-oxadiazol-5-yl)bicyclo[2.2.2]octan-1-yl)methyl)-N-(3-(5-(difluoromethoxy)pyridin-2-yl)phenyl)-3-fluorobicyclo[1.1.1]pentane-1-carboxamide] | 88 nM |
| Cc1nc2ncc(-c3cccc(N(CC45CCC(c6nc(C7CC7)no6)(CC4)CC5)C(=O)C45CC(F)(C4)C5)c3)cc2s1 [Example 278, N-((4-(3-cyclopropyl-1,2,4-oxadiazol-5-yl)bicyclo[2.2.2]octan-1-yl)methyl)-3-fluoro-N-(3-(2-methylthiazolo[4,5-b]pyridin-6-yl)phenyl)bicyclo[1.1.1]pentane-1-carboxamide] | 83 nM |
| COc1ccc(-c2cccc(N(CC34CCC(c5cnc(C(F)(F)F)nc5)(CC3)OC4)C(=O)C34CC(F)(C3)C4)c2)cc1 [Example 420, 3-fluoro-N-(4′-methoxy-[1,1′-biphenyl]-3-yl)-N-((1-(2-(trifluoromethyl)pyrimidin-5-yl)-2-oxabicyclo[2.2.2]octan-4-yl)methyl)bicyclo[1.1.1]pentane-1-carboxamide] | 802 nM |
| COc1cc(-c2cccc(N(CC34CCC(c5nnc(C)s5)(CC3)CC4)C(=O)C3CCC(F)(F)C3)c2)ccn1 (stereo not drawn) [Example 235, 3,3-difluoro-N-(3-(2-methoxypyridin-4-yl)phenyl)-N-((4-(5-methyl-1,3,4-thiadiazol-2-yl)bicyclo[2.2.2]octan-1-yl)methyl)cyclopentane-1-carboxamide] | 895 nM |
| CC(C)(O)c1ccc(-c2ccnc(N(CC34CCC(c5ccc(C(C)(F)F)cn5)(CC3)CC4)C(=O)OC(C)(C)C(F)(F)F)c2)nc1 [Example 607, 1,1,1-trifluoro-2-methylpropan-2-yl ((4-(5-(1,1-difluoroethyl)pyridin-2-yl)bicyclo[2.2.2]octan-1-yl)methyl)(5-(2-hydroxypropan-2-yl)-[2,4′-bipyridin]-2′-yl)carbamate] | 96 nM |
| CC(C)(C)c1nc(C23CCC(CN(C(=O)C45CC(F)(C4)C5)c4cccc(-c5ccc(C(F)(F)F)cc5)c4)(CC2)CC3)no1 [Example 445, N-((4-(5-(tert-butyl)-1,2,4-oxadiazol-3-yl)bicyclo[2.2.2]octan-1-yl)methyl)-3-fluoro-N-(4′-(trifluoromethyl)-[1,1′-biphenyl]-3-yl)bicyclo[1.1.1]pentane-1-carboxamide] | 719 nM |
| Cc1nc2ccc(-c3cccc(N(CC45CCC(c6ccc(C7(C#N)CC7)cc6)(CC4)OC5)C(=O)C45CC(F)(C4)C5)c3)cc2s1 [Example 346, N-((1-(4-(1-cyanocyclopropyl)phenyl)-2-oxabicyclo[2.2.2]octan-4-yl)methyl)-3-fluoro-N-(3-(2-methylbenzo[d]thiazol-6-yl)phenyl)bicyclo[1.1.1]pentane-1-carboxamide] | 181 nM |
| CC(C)(F)c1nc(C23CCC(CN(c4cccc(C5=CCC(C(C)(C)O)CC5)c4)C(=O)[C@H]4C[C@](O)(C(F)(F)F)C4)(CC2)CC3)no1 (stereo partly drawn) [Example 587, (cis)-N-((4-(5-(2-fluoropropan-2-yl)-1,2,4-oxadiazol-3-yl)bicyclo[2.2.2]octan-1-yl)methyl)-3-hydroxy-N-(4′-(2-hydroxypropan-2-yl)-2′,3′,4′,5′-tetrahydro-[1,1′-biphenyl]-3-yl)-3-(trifluoromethyl)cyclobutane-1-carboxamide] | 42 nM |
| CC(C)(C#N)Oc1ccc(-c2cccc(N(CC34CCC(c5noc(C(C)(C)F)n5)(CC3)CC4)C(=O)N3CCC(C(C)(C)O)CC3)c2)cc1 [Example 651, N-(4′-((2-cyanopropan-2-yl)oxy)-[1,1′-biphenyl]-3-yl)-N-((4-(5-(2-fluoropropan-2-yl)-1,2,4-oxadiazol-3-yl)bicyclo[2.2.2]octan-1-yl)methyl)-4-(2-hydroxypropan-2-yl)piperidine-1-carboxamide] | 273 nM |
| CC(C)(O)c1ccc(-c2cccc(N(CC34CCC(c5noc(C(C)(C)F)n5)(CC3)CC4)C(=O)N[C@H]3CC[C@](C)(O)CC3)c2)cc1 [Example 599, 1-((4-(5-(2-fluoropropan-2-yl)-1,2,4-oxadiazol-3-yl)bicyclo[2.2.2]octan-1-yl)methyl)-3-((trans)-4-hydroxy-4-methylcyclohexyl)-1-(4′-(2-hydroxypropan-2-yl)-[1,1′-biphenyl]-3-yl)urea] | 30 nM |
| Cc1nc2ccc(-c3cccc(N(CC45CCC(c6nc(C7CC7)no6)(CC4)CC5)C(=O)C4CC(F)(F)C4)c3)cc2s1 [Example 554, N-((4-(3-cyclopropyl-1,2,4-oxadiazol-5-yl)bicyclo[2.2.2]octan-1-yl)methyl)-3,3-difluoro-N-(3-(2-methylbenzo[d]thiazol-6-yl)phenyl)cyclobutane-1-carboxamide] | 232 nM |
| COc1cc(-c2cccc(N(CC34CCC(c5nnc(C6CC6)o5)(CC3)CC4)C(=O)C34CC(F)(C3)C4)c2)ccn1 [Example 342, N-((4-(5-cyclopropyl-1,3,4-oxadiazol-2-yl)bicyclo[2.2.2]octan-1-yl)methyl)-3-fluoro-N-(3-(2-methoxypyridin-4-yl)phenyl)bicyclo[1.1.1]pentane-1-carboxamide] | 120 nM |
| Cc1cnc(-c2cccc(N(CC34CCC(c5nc(C6CC6)no5)(CC3)CC4)C(=O)C34CC(F)(C3)C4)c2)cn1 [Example 310, N-((4-(3-cyclopropyl-1,2,4-oxadiazol-5-yl)bicyclo[2.2.2]octan-1-yl)methyl)-3-fluoro-N-(3-(5-methylpyrazin-2-yl)phenyl)bicyclo[1.1.1]pentane-1-carboxamide] | 59 nM |
| CC(F)(F)c1nc(C23CCC(CN(C(=O)C4CC(O)(C(F)(F)F)C4)c4cccc(-c5ccc(C(O)C(F)F)cc5)c4)(CC2)CC3)no1 (single isomer, unassigned) [Example 628 (second eluting isomer)] | 128 nM |
| O=C(N(CC12CCC(c3nc(C4CC4)no3)(CC1)CC2)c1cccc(-c2ccc3nncn3c2)c1)C12CC(F)(C1)C2 [Example 323, N-(3-([1,2,4]triazolo[4,3-a]pyridin-6-yl)phenyl)-N-((4-(3-cyclopropyl-1,2,4-oxadiazol-5-yl)bicyclo[2.2.2]octan-1-yl)methyl)-3-fluorobicyclo[1.1.1]pentane-1-carboxamide] | 1630 nM |
| CC(C)(C)c1noc(C23CCC(CN(C(=O)C45CC(F)(C4)C5)c4cccc(-c5ccc(OC(F)F)cc5)c4)(CC2)CC3)n1 [Example 368, N-((4-(3-(tert-butyl)-1,2,4-oxadiazol-5-yl)bicyclo[2.2.2]octan-1-yl)methyl)-N-(4′-(difluoromethoxy)-[1,1′-biphenyl]-3-yl)-3-fluorobicyclo[1.1.1]pentane-1-carboxamide] | 135 nM |
| N#Cc1cccc(-c2cccc(N(CC34CCC(c5nc(C6CC6)no5)(CC3)CC4)C(=O)C34CC(F)(C3)C4)c2)c1 [Example 258, N-(3′-cyano-[1,1′-biphenyl]-3-yl)-N-((4-(3-cyclopropyl-1,2,4-oxadiazol-5-yl)bicyclo[2.2.2]octan-1-yl)methyl)-3-fluorobicyclo[1.1.1]pentane-1-carboxamide] | 479 nM |
| CCOc1ccc(-c2cccc(N(CC34CCC(c5noc(C(C)C)n5)(CC3)CC4)C(=O)C34CC(F)(C3)C4)c2)cc1 [Example 431, N-(4′-ethoxy-[1,1′-biphenyl]-3-yl)-3-fluoro-N-((4-(5-isopropyl-1,2,4-oxadiazol-3-yl)bicyclo[2.2.2]octan-1-yl)methyl)bicyclo[1.1.1]pentane-1-carboxamide] | 25 nM |
| CS(=O)(=O)Nc1ccc(-c2cccc(N(CC34CCC(c5nc(C6CC6)no5)(CC3)CC4)C(=O)C34CC(F)(C3)C4)c2)cn1 [Example 270, N-((4-(3-cyclopropyl-1,2,4-oxadiazol-5-yl)bicyclo[2.2.2]octan-1-yl)methyl)-3-fluoro-N-(3-(6-(methylsulfonamido)pyridin-3-yl)phenyl)bicyclo[1.1.1]pentane-1-carboxamide] | 442 nM |
| Cc1nc2ccc(-c3cccc(N(CC45CCC(c6cc(C7CC7)n(C)n6)(CC4)CC5)C(=O)C45CC(F)(C4)C5)c3)cc2s1 [Example 409, N-((4-(5-cyclopropyl-1-methyl-1H-pyrazol-3-yl)bicyclo[2.2.2]octan-1-yl)methyl)-3-fluoro-N-(3-(2-methylbenzo[d]thiazol-6-yl)phenyl)bicyclo[1.1.1]pentane-1-carboxamide] | 73 nM |
| CC(C)(C)c1nc(C23CCC(CN(C(=O)C45CC(F)(C4)C5)c4cncc(-c5ccc(OC(F)F)cn5)c4)(CC2)CC3)no1 [Example 486, N-((4-(5-(tert-butyl)-1,2,4-oxadiazol-3-yl)bicyclo[2.2.2]octan-1-yl)methyl)-N-(5-(difluoromethoxy)-[2,3′-bipyridin]-5′-yl)-3-fluorobicyclo[1.1.1]pentane-1-carboxamide] | 89 nM |
| CC(C)(C)COC(=O)N(CC12CCC(c3noc(C(C)(F)F)n3)(CC1)CC2)c1cc(-c2ccc(C(C)(C)O)cc2)c(F)cn1 [Example 619, Neopentyl ((4-(5-(1,1-difluoroethyl)-1,2,4-oxadiazol-3-yl)bicyclo[2.2.2]octan-1-yl)methyl) (5-fluoro-4-(4-(2-hydroxypropan-2-yl)phenyl)pyridin-2-yl) carbamate] | 28 nM |
